Measurements published in the supplement of paper PMC10307832.

Assays:
Test in all cases: relative viability (nuclei count vs DMSO), 5 days (fraction); higher = more cells survive
NCI-H1975 = tested on: NCI-H1975
How it was run: (§1)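 One day after seeding in 1536-well plates, lung cancer cell lines were dosed by pin tool. Dosing was either single-drug or a fixed anchor-drug dose plus five library-drug doses (not always all listed) in √10 steps. After 5 days, nuclei were stained in one fix-and-stain step and counted on 4× images, and relative viability is the nuclei count of treated wells over that of vehicle wells, given as the median of duplicate plates.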

NCI-H1944 = tested on: NCI-H1944
How it was run: as §1

NCI-H2126 = tested on: NCI-H2126
How it was run: as §1

NCI-H1666 = tested on: NCI-H1666
How it was run: as §1

LCLC-97TM1 = tested on: LCLC-97TM1
How it was run: as §1

EMC-BAC-2 = tested on: EMC-BAC-2
How it was run: as §1

NCI-H1993 = tested on: NCI-H1993
How it was run: as §1

NCI-H1755 = tested on: NCI-H1755
How it was run: as §1

NCI-H2170 = tested on: NCI-H2170
How it was run: as §1

NCI-H520 = tested on: NCI-H520
How it was run: as §1

NCI-H1793 = tested on: NCI-H1793
How it was run: as §1

NCI-H2009 = tested on: NCI-H2009
How it was run: as §1

NCI-H460 = tested on: NCI-H460
How it was run: as §1

ABC-1 = tested on: ABC-1
How it was run: as §1

NCI-H727 = tested on: NCI-H727
How it was run: as §1

PC-3 [JPC-3] = tested on: PC-3 [JPC-3]
How it was run: as §1

NCI-H1355 = tested on: NCI-H1355
How it was run: as §1

NCI-H2347 = tested on: NCI-H2347
How it was run: as §1

SW 1573 = tested on: SW 1573
How it was run: as §1

PC-14 = tested on: PC-14
How it was run: as §1

SK-LU-1 = tested on: SK-LU-1
How it was run: as §1

NCI-H441 = tested on: NCI-H441
How it was run: as §1

NCI-H647 = tested on: NCI-H647
How it was run: as §1

For O=C(O)CCCCC(CCSCc1ccccc1)SCc1ccccc1 (centres undefined) [CPI-613] + Cc1nc(NC(=O)N2CCC[C@H]2C(N)=O)sc1-c1ccnc(C(C)(C)C(F)(F)F)c1 [Alpelisib] (partner 2 µM), the relative viability (NCI-H1975; first compound 5 µM) was 0.542, the relative viability (NCI-H1975; first compound 15.81 µM) was 0.655 and the relative viability (NCI-H1975; first compound 50 µM) was 0.692. The relative viability (NCI-H1975; first compound 158.11 µM) was 0.327, the relative viability (NCI-H1975; first compound 500 µM) was 0.0528 and the relative viability (NCI-H1944; first compound 5 µM) was 0.841. For the same molecule, the relative viability (NCI-H1944; first compound 15.81 µM) was 0.843, the relative viability (NCI-H1944; first compound 50 µM) was 0.778 and the relative viability (NCI-H1944; first compound 158.11 µM) was 0.803. It also gave a relative viability (NCI-H1944; first compound 500 µM) of 0.743, a relative viability (NCI-H2126; first compound 5 µM) of 0.755 and a relative viability (NCI-H2126; first compound 15.81 µM) of 0.815. For the same molecule, the relative viability (NCI-H2126; first compound 50 µM) was 0.78, the relative viability (NCI-H2126; first compound 158.11 µM) was 0.749 and the relative viability (NCI-H2126; first compound 500 µM) was 0.747. The relative viability (NCI-H1666; first compound 5 µM) was 0.935, the relative viability (NCI-H1666; first compound 15.81 µM) was 0.896 and the relative viability (NCI-H1666; first compound 50 µM) was 1.27. It also gave a relative viability (NCI-H1666; first compound 158.11 µM) of 0.158, a relative viability (NCI-H1666; first compound 500 µM) of 0.138 and a relative viability (LCLC-97TM1; first compound 5 µM) of 0.216. It also gave a relative viability (LCLC-97TM1; first compound 15.81 µM) of 0.254, a relative viability (LCLC-97TM1; first compound 50 µM) of 0.311 and a relative viability (LCLC-97TM1; first compound 158.11 µM) of 0.139. The relative viability (LCLC-97TM1; first compound 500 µM) was 0.0641, the relative viability (EMC-BAC-2; first compound 5 µM) was 0.713 and the relative viability (EMC-BAC-2; first compound 15.81 µM) was 0.702. It also gave a relative viability (EMC-BAC-2; first compound 50 µM) of 0.72, a relative viability (EMC-BAC-2; first compound 158.11 µM) of 0.68 and a relative viability (EMC-BAC-2; first compound 500 µM) of 0.119. The relative viability (NCI-H1993; first compound 5 µM) was 0.709, the relative viability (NCI-H1993; first compound 15.81 µM) was 0.721 and the relative viability (NCI-H1993; first compound 50 µM) was 0.752. For the same molecule, the relative viability (NCI-H1993; first compound 158.11 µM) was 0.485, the relative viability (NCI-H1993; first compound 500 µM) was 0.432 and the relative viability (NCI-H1755; first compound 5 µM) was 0.91. It also gave a relative viability (NCI-H1755; first compound 15.81 µM) of 0.89, a relative viability (NCI-H1755; first compound 50 µM) of 0.837 and a relative viability (NCI-H1755; first compound 158.11 µM) of 0.769. It also gave a relative viability (NCI-H1755; first compound 500 µM) of 0.251, a relative viability (NCI-H2170; first compound 5 µM) of 0.808 and a relative viability (NCI-H2170; first compound 15.81 µM) of 0.766. For the same molecule, the relative viability (NCI-H2170; first compound 50 µM) was 0.796, the relative viability (NCI-H2170; first compound 158.11 µM) was 0.547 and the relative viability (NCI-H2170; first compound 500 µM) was 0.483. The relative viability (NCI-H520; first compound 5 µM) was 0.731, the relative viability (NCI-H520; first compound 15.81 µM) was 1.01 and the relative viability (NCI-H520; first compound 50 µM) was 0.845. For the same molecule, the relative viability (NCI-H520; first compound 158.11 µM) was 0.403, the relative viability (NCI-H520; first compound 500 µM) was 0.112 and the relative viability (NCI-H1793; first compound 5 µM) was 0.671. The relative viability (NCI-H1793; first compound 50 µM) was 0.66, the relative viability (NCI-H1793; first compound 158.11 µM) was 0.273 and the relative viability (NCI-H1793; first compound 500 µM) was 0.109. It also gave a relative viability (NCI-H2009; first compound 5 µM) of 1.19, a relative viability (NCI-H2009; first compound 15.81 µM) of 1.1 and a relative viability (NCI-H2009; first compound 50 µM) of 1.12. For the same molecule, the relative viability (NCI-H2009; first compound 158.11 µM) was 0.141, the relative viability (NCI-H2009; first compound 500 µM) was 0.014 and the relative viability (NCI-H460; first compound 5 µM) was 0.426. It also gave a relative viability (NCI-H460; first compound 15.81 µM) of 0.496, a relative viability (NCI-H460; first compound 50 µM) of 0.433 and a relative viability (NCI-H460; first compound 158.11 µM) of 0.0466. It also gave a relative viability (NCI-H460; first compound 500 µM) of 0.006, a relative viability (ABC-1; first compound 5 µM) of 1.02 and a relative viability (ABC-1; first compound 15.81 µM) of 1.2. The relative viability (ABC-1; first compound 50 µM) was 1.26, the relative viability (ABC-1; first compound 158.11 µM) was 0.39 and the relative viability (ABC-1; first compound 500 µM) was 0.223. The relative viability (NCI-H727; first compound 5 µM) was 0.531, the relative viability (NCI-H727; first compound 15.81 µM) was 0.558 and the relative viability (NCI-H727; first compound 50 µM) was 0.662. It also gave a relative viability (NCI-H727; first compound 158.11 µM) of 0.226, a relative viability (NCI-H727; first compound 500 µM) of 0.0618 and a relative viability (PC-3 [JPC-3]; first compound 5 µM) of 1.05. The relative viability (PC-3 [JPC-3]; first compound 15.81 µM) was 0.943, the relative viability (PC-3 [JPC-3]; first compound 50 µM) was 0.934 and the relative viability (PC-3 [JPC-3]; first compound 158.11 µM) was 0.921. It also gave a relative viability (PC-3 [JPC-3]; first compound 500 µM) of 0.903, a relative viability (NCI-H1355; first compound 5 µM) of 0.834 and a relative viability (NCI-H1355; first compound 15.81 µM) of 0.813. It also gave a relative viability (NCI-H1355; first compound 50 µM) of 0.918, a relative viability (NCI-H1355; first compound 158.11 µM) of 0.413 and a relative viability (NCI-H1355; first compound 500 µM) of 0.134. The relative viability (NCI-H2347; first compound 5 µM) was 1.02, the relative viability (NCI-H2347; first compound 15.81 µM) was 0.963 and the relative viability (NCI-H2347; first compound 50 µM) was 0.959. For the same molecule, the relative viability (NCI-H2347; first compound 158.11 µM) was 1.05, the relative viability (NCI-H2347; first compound 500 µM) was 0.973 and the relative viability (SW 1573; first compound 5 µM) was 0.729. For the same molecule, the relative viability (SW 1573; first compound 15.81 µM) was 0.764, the relative viability (SW 1573; first compound 50 µM) was 0.806 and the relative viability (SW 1573; first compound 158.11 µM) was 0.778. It also gave a relative viability (SW 1573; first compound 500 µM) of 0.669, a relative viability (PC-14; first compound 5 µM) of 0.97 and a relative viability (PC-14; first compound 15.81 µM) of 0.884. It also gave a relative viability (PC-14; first compound 50 µM) of 0.849, a relative viability (PC-14; first compound 158.11 µM) of 1.01 and a relative viability (PC-14; first compound 500 µM) of 0.863. It also gave a relative viability (SK-LU-1; first compound 5 µM) of 1.05, a relative viability (SK-LU-1; first compound 15.81 µM) of 0.849 and a relative viability (SK-LU-1; first compound 50 µM) of 0.57. The relative viability (SK-LU-1; first compound 158.11 µM) was 0.175, the relative viability (SK-LU-1; first compound 500 µM) was 0.114 and the relative viability (NCI-H441; first compound 5 µM) was 0.692. It also gave a relative viability (NCI-H441; first compound 15.81 µM) of 1.01, a relative viability (NCI-H441; first compound 50 µM) of 0.573 and a relative viability (NCI-H441; first compound 158.11 µM) of 0.216. The relative viability (NCI-H441; first compound 500 µM) was 0.007, the relative viability (NCI-H647; first compound 5 µM) was 1.19 and the relative viability (NCI-H647; first compound 15.81 µM) was 0.968. The relative viability (NCI-H647; first compound 50 µM) was 0.769, the relative viability (NCI-H647; first compound 158.11 µM) was 0.0933 and the relative viability (NCI-H647; first compound 500 µM) was 0.0159.
